Measurements reported in patent publication US20160220557A1, “USE OF ACETYL-COA CARBOXYLASE INHIBITORS FOR TREATING ACNE VULGARIS” (PFIZER INC., priority 2013, published 2016).
Read-outs that look alike come from different tables or passages of the source.

Key:
hACC1 = hACC1 (Homo sapiens, UniProt Q13085); test: Radiometric ACC1 inhibition assay; type: biochemical
[1] = molecular target: T1, recombinant human ACC2 (rhACC2) (Homo sapiens, UniProt O00763, V2141I); test: Transcreener ADP detection FP assay, recombinant human ACC2 inhibition; type: biochemical; details: recombinant human ACC2, 50 μM ATP; read-out: Transcreener Assay hACC2 IC50
T1 construct: made in house; host or cells: CHO cells, tetracycline-induced (pcDNA5 FRT TO-TOPO)
T1 sequence (O00763 whole entry V2141I): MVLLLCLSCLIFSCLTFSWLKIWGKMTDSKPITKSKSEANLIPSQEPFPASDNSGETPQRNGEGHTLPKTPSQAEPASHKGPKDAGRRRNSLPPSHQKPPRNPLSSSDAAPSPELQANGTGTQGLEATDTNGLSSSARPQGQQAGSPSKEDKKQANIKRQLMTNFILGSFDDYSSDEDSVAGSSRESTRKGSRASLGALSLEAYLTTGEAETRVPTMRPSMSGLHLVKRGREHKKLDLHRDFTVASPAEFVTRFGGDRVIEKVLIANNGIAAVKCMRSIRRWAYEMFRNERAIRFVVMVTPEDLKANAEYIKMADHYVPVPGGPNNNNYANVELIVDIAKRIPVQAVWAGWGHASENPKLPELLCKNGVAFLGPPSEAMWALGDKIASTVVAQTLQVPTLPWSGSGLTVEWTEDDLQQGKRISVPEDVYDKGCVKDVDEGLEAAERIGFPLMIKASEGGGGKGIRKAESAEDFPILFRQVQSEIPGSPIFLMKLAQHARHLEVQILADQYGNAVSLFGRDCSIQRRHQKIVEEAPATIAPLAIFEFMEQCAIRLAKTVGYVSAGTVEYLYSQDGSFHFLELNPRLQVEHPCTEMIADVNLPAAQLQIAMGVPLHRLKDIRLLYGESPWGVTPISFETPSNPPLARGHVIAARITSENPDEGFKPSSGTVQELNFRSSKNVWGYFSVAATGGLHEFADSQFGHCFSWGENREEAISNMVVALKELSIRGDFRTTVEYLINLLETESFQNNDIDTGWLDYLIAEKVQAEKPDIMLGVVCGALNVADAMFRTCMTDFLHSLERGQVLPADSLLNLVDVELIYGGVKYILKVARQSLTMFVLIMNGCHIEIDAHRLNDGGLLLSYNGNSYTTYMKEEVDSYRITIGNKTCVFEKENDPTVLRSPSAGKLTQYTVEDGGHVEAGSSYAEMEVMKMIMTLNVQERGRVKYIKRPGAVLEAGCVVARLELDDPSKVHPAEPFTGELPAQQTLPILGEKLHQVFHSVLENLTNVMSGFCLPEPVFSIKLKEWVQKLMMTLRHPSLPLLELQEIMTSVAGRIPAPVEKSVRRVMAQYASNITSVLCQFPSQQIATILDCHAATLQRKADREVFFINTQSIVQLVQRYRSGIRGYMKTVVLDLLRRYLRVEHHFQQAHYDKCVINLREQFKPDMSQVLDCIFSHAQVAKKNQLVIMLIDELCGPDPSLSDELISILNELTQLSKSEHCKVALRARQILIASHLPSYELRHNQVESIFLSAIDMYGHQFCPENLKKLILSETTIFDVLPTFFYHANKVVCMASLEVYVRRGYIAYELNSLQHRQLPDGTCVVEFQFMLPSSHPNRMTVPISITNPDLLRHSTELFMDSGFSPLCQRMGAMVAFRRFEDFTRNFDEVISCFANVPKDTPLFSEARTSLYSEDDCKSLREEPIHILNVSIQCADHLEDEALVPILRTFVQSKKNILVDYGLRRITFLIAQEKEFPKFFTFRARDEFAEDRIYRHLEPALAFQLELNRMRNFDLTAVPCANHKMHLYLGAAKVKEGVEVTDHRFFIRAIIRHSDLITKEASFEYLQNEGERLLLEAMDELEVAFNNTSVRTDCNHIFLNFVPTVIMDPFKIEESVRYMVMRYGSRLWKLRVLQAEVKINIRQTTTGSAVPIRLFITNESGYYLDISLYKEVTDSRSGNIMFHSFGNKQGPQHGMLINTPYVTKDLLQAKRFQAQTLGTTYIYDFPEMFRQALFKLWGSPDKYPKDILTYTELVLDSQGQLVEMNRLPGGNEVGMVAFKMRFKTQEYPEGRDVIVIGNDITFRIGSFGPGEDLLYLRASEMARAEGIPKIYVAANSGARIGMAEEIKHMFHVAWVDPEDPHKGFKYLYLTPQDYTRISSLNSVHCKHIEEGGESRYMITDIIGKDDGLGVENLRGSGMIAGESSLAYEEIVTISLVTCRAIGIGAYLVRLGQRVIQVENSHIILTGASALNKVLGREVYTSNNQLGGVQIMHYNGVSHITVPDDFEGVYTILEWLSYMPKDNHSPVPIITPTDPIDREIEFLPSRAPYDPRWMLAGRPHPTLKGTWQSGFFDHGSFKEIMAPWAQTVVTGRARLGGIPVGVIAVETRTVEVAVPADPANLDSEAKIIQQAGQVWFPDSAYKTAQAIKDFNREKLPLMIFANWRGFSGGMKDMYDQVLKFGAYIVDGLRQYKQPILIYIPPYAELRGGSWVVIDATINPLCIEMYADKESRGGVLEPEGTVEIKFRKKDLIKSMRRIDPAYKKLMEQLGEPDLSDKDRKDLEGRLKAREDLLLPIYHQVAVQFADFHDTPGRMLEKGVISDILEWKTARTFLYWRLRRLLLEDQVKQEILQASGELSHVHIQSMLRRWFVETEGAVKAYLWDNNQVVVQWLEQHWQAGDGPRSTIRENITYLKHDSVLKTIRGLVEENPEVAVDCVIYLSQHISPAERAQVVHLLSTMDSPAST

[2] = test system: SZ95 human sebocyte cells; test: Inhibition of de novo lipogenesis (14C-acetate incorporation) in cultured human sebocytes; type: cell-based; details: SZ95 sebocytes, 14C-acetate incorporation into lipids relative to vehicle, read-out: C9302E Sebocyte IC50
Protocol: SZ95 sebocytes were grown in Human Sebocyte Growth Medium (HSGM) (Sebomed® medium (Biochrom: F8205) supplemented with 10% heat-inactivated fetal bovine serum, 1% penicillin/streptomycin, 1 mM calcium chloride and 5 ng/mL recombinant human epidermal growth factor (Life Tech: PHG0311)). At 90% confluence, cells were washed three times with PBS and then detached with 0.05% Trypsin-EDTA. Cells were centrifuged and resuspended in HSGM containing 10% charcoal-stripped serum (Life Tech: 12676-029). Cells were then plated in 24-well plates at a density of 0.25×10^6 cells/well and were incubated overnight to enable cell adherence to the culture plate.
Cells were treated with a dose response of compound, and each dose was assayed in triplicate. Briefly, compounds were dissolved in DMSO stocks and diluted 1:1000 into charcoal-stripped media. 0.1% DMSO without compound was used as the vehicle control. After a 1 hour preincubation with compound or vehicle, 0.25 μCi ^14C-acetic acid (American Radiolabeled Chemicals: ARC0158B) was added to each well. Plates were then incubated for an additional two hours. At the end of the incubation period, cells were removed from incubator, placed on ice, and then washed twice with ice-cold PBS to remove free ^14C-acetic acid. Plates were sealed and stored at −20° C. until analysis.
Plates were shaken for 1 hour at room temperature to induce lysis. Lysates were transferred to individual 1.5 mL polypropylene tubes, and wells were washed with 175 μl of PBS, which was added to lysates. 450 μl of a 1:1 (v/v) chloroform:methanol solution was then added to each tube, and then all tubes were vortexed for 10 seconds and centrifuged at 20,000×g for 5 minutes at room temperature to separate aqueous from organic phase. A 25 μl aliquot was removed from the bottom organic layer of each sample and added to 6 mL OptiPhase supermix (PerkinElmer: 1200-439) scintillation fluid. Counts of ^14C incorporated into lipids were assessed by scintillation counting. DNL (counts of ^14C incorporated into lipids) was expressed for compound treated cells relative to DNL in the vehicle control treated cells for determination of EC50 values. For a subset of the compounds tested, a second aliquot (3×35 μl) of the organic layer of each sample was removed and applied to a TLC lane (Analtech Silica Gel G Plates). Radiolabeled lipids were resolved using a 2-solvent system. Solvent 1 contained a 100:100:100:40:36 mixture of ethyl acetate:isopropyl alcohol:CHCl3:MeOH:0.25% KCl and solvent 2 a 70:27:3 hexane:diethyl ether:acetic acid mix. The TLC plate was dried under nitrogen for 30 minutes and [^14C]-calibrators added to a vacant lane. Bands were visualized and quantitated using a Molecular Dynamics' Storm 860 Phosphorimager system following 18-36 hours exposure to a Phosphorimager screen.

hACC2 = hACC2 (Homo sapiens, UniProt O00763); test: Radiometric ACC2 inhibition assay; type: biochemical
Sequence of hACC2 (O00763 whole entry): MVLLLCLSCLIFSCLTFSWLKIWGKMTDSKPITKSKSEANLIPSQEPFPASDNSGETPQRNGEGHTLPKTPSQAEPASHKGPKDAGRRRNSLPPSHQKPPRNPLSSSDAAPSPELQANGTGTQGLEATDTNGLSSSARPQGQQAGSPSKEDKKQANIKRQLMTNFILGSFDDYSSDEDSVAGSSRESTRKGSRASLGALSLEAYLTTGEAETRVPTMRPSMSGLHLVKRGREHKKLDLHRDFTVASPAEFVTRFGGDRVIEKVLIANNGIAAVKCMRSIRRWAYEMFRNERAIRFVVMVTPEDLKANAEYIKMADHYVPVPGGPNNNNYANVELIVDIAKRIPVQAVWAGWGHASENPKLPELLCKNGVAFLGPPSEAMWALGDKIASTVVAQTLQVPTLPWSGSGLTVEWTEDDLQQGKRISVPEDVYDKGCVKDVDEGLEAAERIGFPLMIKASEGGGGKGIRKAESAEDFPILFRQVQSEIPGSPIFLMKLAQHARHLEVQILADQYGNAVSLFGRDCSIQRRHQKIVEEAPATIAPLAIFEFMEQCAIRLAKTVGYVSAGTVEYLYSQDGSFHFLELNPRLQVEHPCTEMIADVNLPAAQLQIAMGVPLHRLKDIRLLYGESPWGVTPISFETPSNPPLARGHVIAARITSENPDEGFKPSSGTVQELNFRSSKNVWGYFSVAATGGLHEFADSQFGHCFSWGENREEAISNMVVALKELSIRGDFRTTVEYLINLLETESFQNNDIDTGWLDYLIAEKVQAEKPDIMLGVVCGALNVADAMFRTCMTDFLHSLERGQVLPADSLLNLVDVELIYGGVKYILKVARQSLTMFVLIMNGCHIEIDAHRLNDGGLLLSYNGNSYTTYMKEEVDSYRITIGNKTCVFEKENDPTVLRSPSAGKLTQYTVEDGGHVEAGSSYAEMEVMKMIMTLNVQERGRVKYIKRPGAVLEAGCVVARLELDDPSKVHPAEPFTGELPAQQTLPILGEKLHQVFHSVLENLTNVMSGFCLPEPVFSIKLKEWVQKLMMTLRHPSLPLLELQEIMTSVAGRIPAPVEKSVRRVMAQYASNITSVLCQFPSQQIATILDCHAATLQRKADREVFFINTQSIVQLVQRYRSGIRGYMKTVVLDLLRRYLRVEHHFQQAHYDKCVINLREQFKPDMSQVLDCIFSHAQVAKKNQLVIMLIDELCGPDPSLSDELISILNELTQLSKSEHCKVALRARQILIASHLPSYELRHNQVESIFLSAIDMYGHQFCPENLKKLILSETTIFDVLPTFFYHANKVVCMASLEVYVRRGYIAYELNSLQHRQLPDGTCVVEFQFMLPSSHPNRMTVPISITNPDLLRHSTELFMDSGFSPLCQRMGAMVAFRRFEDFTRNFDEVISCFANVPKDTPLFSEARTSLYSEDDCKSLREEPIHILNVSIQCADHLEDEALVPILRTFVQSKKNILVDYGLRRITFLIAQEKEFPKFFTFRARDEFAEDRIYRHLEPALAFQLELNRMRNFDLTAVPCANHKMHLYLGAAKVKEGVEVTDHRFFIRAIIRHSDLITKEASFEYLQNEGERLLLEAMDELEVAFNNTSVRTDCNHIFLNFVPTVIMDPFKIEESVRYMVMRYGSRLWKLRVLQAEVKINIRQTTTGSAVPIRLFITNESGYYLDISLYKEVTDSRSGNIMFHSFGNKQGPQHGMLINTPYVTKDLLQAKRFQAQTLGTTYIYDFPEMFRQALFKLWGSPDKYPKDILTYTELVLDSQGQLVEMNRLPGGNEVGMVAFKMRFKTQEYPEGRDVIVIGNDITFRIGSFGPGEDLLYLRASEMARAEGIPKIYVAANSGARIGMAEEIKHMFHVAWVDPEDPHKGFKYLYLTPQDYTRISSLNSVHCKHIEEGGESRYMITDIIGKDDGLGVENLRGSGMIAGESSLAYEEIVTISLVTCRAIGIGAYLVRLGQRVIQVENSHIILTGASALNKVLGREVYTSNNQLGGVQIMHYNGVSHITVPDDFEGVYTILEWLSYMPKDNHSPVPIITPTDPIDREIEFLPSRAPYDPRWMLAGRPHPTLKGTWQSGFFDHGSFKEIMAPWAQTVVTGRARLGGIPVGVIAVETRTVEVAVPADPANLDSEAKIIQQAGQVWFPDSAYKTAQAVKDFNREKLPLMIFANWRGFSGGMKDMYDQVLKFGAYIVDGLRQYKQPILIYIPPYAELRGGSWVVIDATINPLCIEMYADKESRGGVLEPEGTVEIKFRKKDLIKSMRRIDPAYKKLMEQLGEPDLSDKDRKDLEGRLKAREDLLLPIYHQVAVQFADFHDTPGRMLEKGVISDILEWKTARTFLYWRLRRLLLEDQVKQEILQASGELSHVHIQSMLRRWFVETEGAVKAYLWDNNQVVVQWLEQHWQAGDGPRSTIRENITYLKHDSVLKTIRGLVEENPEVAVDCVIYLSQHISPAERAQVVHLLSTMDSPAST

[3] = molecular target: T2, recombinant human ACC1 (rhACC1) (Homo sapiens, UniProt Q13085, DEL44-44); test: Transcreener ADP detection FP assay, recombinant human ACC1 inhibition; type: biochemical; details: recombinant human ACC1, 50 μM ATP; read-out: Transcreener Assay hACC1 IC50
T2 construct: His6 (N); made in house; host or cells: SF9 insect cells (baculovirus)

**Q.** What does the source list for `COc1ccc2ccc(C(=O)N3CCC4(CC3)CC(=O)c3c(cnn3C(C)C)C4)cc2c1` [Example 2, 1-isopropyl-1′-(7-methoxy-2-naphthoyl)-4,6-dihydrospiro[indazole-5,4′-piperidin]-7(1H)-one]?
**A.** IC50 (hACC1): 3 nM; IC50 [1]: 2 nM; IC50 ([2]; Homo sapiens): 28.2 nM; IC50 (hACC2): 4 nM; IC50 [3]: 4 nM

**Q.** How did the IC50 (hACC1) turn out when `CC(C)n1ncc2c1C(=O)CC1(CCN(C(=O)c3ccc4ccc(NC(C)(C)C)nc4c3)CC1)C2` [Example 4, 1′-(2-(tert-butylamino)quinoline-7-carbonyl)-1-isopropyl-4,6-dihydrospiro[indazole-5,4′-piperidin]-7(1H)-one] was run?
**A.** 6 nM

**Q.** What about the IC50 [1] of the same molecule?
**A.** 12 nM

**Q.** What about the IC50 ([2]; Homo sapiens) of the same molecule?
**A.** 15 nM

**Q.** And the IC50 (hACC2)?
**A.** 5 nM

**Q.** What about the IC50 [3] of the same molecule?
**A.** 17 nM

**Q.** `CC(C)n1ncc2c1C(=O)CC1(CCN(C(=O)c3ccc4[nH]ncc4c3)CC1)C2` [Example 5, 1′-(1H-indazole-5-carbonyl)-1-isopropyl-4,6-dihydrospiro[indazole-5,4′-piperidin]-7(1H)-one] was tested. Which IC50 (hACC1) did it give?
**A.** 5 nM

**Q.** And the IC50 [1]?
**A.** 30 nM

**Q.** And the IC50 ([2]; Homo sapiens)?
**A.** 201 nM

**Q.** What about the IC50 (hACC2) of the same molecule?
**A.** 8 nM

**Q.** And the IC50 [3]?
**A.** 62 nM

**Q.** Which IC50 (hACC1) does the source give for `CC(C)n1ncc2c1C(=O)CC1(CCN(C(=O)c3ccc4[nH]nc(C#N)c4c3)CC1)C2` [Example 6, 5-(1-isopropyl-7-oxo-1,4,6,7-tetrahydrospiro[indazole-5,4′-piperidin]-1′-ylcarbonyl)-1H-indazole-3-carbonitrile] here?
**A.** 5 nM

**Q.** What about the IC50 [2] of the same molecule?
**A.** 103 nM

**Q.** What about the IC50 (hACC2) of the same molecule?
**A.** 4 nM

**Q.** How did the IC50 ([2]; Homo sapiens) turn out when `COc1nccc2ccc(C(=O)N3CCC4(CC3)Cc3cn(C(C)(C)C)nc3C(=O)N4)cc12` [Example 7, 2′-(tert-butyl)-1-(1-methoxyisoquinoline-7-carbonyl)-4′,6′-dihydrospiro[piperidine-4,5′-pyrazolo[3,4-c]pyridin]-7′(2′H)-one] was run?
**A.** 94 nM

**Q.** How did the IC50 (hACC1) turn out when `CO[C@H]1CCCC[C@@H](c2ccccc2)OC(=O)[C@@H](C)[C@@]2(O)O[C@H]([C@@H](C)[C@H](O)[C@H]2OC)[C@@H](C)/C=C/[C@H]1OC` [Example 9, reference compound] was run?
**A.** 140 nM

**Q.** And the IC50 [1]?
**A.** 1200 nM

**Q.** What about the IC50 ([2]; Homo sapiens) of the same molecule?
**A.** 4 nM

**Q.** What about the IC50 (hACC2) of the same molecule?
**A.** 16 nM

**Q.** And the IC50 [3]?
**A.** 20 nM

**Q.** For `COc1cc(C(=O)N2CCC3(CC2)CC(=O)c2cc(-c4nnn[nH]4)ccc2O3)cc2c1ccn2C1CC1` [Example 10, 1′-(1-cyclopropyl-4-methoxy-1H-indole-6-carbonyl)-6-(1H-tetrazol-5-yl)spiro[chromane-2,4′-piperidin]-4-one], which IC50 [1] is on record?
**A.** 4 nM

**Q.** And the IC50 ([2]; Homo sapiens)?
**A.** 1690 nM

**Q.** And the IC50 [3]?
**A.** 16 nM

**Q.** Which IC50 (hACC1) does the source give for `CC(C)n1ncc2c1C(=O)CC1(CCN(C(=O)c3ccc4[nH]nc(C#N)c4c3)CC1)C2` [Example 11, 5-(1-isopropyl-7-oxo-1,4,6,7-tetrahydrospiro[indazole-5,4′-piperidine]-1′-carbonyl)-1H-indazole-3-carbonitrile] here?
**A.** 4 nM

**Q.** What about the IC50 [2] of the same molecule?
**A.** 217 nM

**Q.** And the IC50 (hACC2)?
**A.** 7 nM

**Q.** How did the IC50 (hACC1) turn out when `CC(=O)N[C@@H](C)C#Cc1ccc(Oc2ccc(OC(C)C)cc2)cc1` [Example 12, (S)—N-(4-(4-(4-isopropoxyphenoxy)phenyl)but-3-yn-2-yl)acetamide] was run?
**A.** 26 nM

**Q.** What about the IC50 [1] of the same molecule?
**A.** 29 nM

**Q.** And the IC50 ([2]; Homo sapiens)?
**A.** 121 nM

**Q.** And the IC50 (hACC2)?
**A.** 2 nM

**Q.** What about the IC50 [3] of the same molecule?
**A.** 141 nM

**Q.** `CCCOc1ccc(Oc2ccc(-c3ccc(C(C)NC(C)=O)cc3)cn2)cc1` (stereo not drawn) [Example 13, N-(1-(4-(6-(4-propoxyphenoxy)pyridin-3-yl)phenyl)ethyl)acetamide, reference compound] was tested. Which IC50 [1] did it give?
**A.** 180 nM

**Q.** What about the IC50 ([2]; Homo sapiens) of the same molecule?
**A.** 3280 nM

**Q.** And the IC50 [3]?
**A.** > 2980 nM

**Q.** How did the IC50 (hACC1) turn out when `CCOc1cc(C(=O)N2CCC3(CC2)CC(=O)c2cc(-c4cncc(C(N)=O)c4)ccc2O3)cc(OCC)c1-c1cccc(C(=O)O)c1` [Example 14, 4′-(6-(5-carbamoylpyridin-3-yl)-4-oxospiro[chromane-2,4′-piperidine]-1′-carbonyl)-2′,6′-diethoxy-[1,1′-biphenyl]-3-carboxylic acid] was run?
**A.** 23 nM

**Q.** And the IC50 [1]?
**A.** 8 nM

**Q.** And the IC50 ([2]; Homo sapiens)?
**A.** 8930 nM

**Q.** What about the IC50 (hACC2) of the same molecule?
**A.** 5 nM

**Q.** What about the IC50 [3] of the same molecule?
**A.** 12 nM

**Q.** `CC(=O)NCC(C)c1ccc2nc(Oc3ccc(OCC4CC4)nc3)sc2c1` (stereo not drawn) [Example 15, N-(2-(2-((6-(cyclopropylmethoxy)pyridin-3-yl)oxy)benzo[d]thiazol-6-yl)propyl)acetamide] was tested. Which IC50 [1] did it give?
**A.** 1100 nM

**Q.** And the IC50 ([2]; Homo sapiens)?
**A.** 4310 nM

**Q.** And the IC50 [3]?
**A.** 2200 nM

**Q.** For `CC(C)(O)[C@@H](NC(=O)[C@H]1CC[C@H](NS(=O)(=O)c2ccc(C(F)(F)F)cc2)CC1)c1ccccc1` [Example 16, (1R,4S)—N—((S)-2-hydroxy-2-methyl-1-phenylpropyl)-4-((4-(trifluoromethyl)phenyl)sulfonamido)cyclohexane-1-carboxamide], which IC50 [1] is on record?
**A.** 69 nM

**Q.** What about the IC50 ([2]; Homo sapiens) of the same molecule?
**A.** 2770 nM

**Q.** What about the IC50 [3] of the same molecule?
**A.** 74 nM

**Q.** With `CCCCCCCCCCCCCCOc1ccc(C(=O)OCC(F)(F)F)o1` [Example 17, 2,2,2-trifluoroethyl 5-(tetradecyloxy)furan-2-carboxylate] as the molecule, how does the IC50 (hACC1) read?
**A.** > 10000 nM

**Q.** `CCCCCCCCCCCCCCOc1ccc(C(=O)OC(C)C)o1` [Example 18, isopropyl 5-(tetradecyloxy)furan-2-carboxylate] was tested. Which IC50 (hACC1) did it give?
**A.** > 10000 nM

**Q.** With `CCCCCCCCCCCCCCOc1ccc(C(=O)OCc2oc(=O)oc2C)o1` [Example 19, (5-methyl-2-oxo-1,3-dioxol-4-yl)methyl 5-(tetradecyloxy)furan-2-carboxylate] as the molecule, how does the IC50 (hACC1) read?
**A.** > 10000 nM

**Q.** What does the source list for `CCCCC1=NC2(CCN(C(=O)c3c(NC(=O)NCC)sc4ccccc34)CC2)C(=O)N1` [Example 20, 1-(3-(2-butyl-4-oxo-1,3,8-triazaspiro[4.5]dec-1-ene-8-carbonyl)benzo[b]thiophen-2-yl)-3-ethyl urea]?
**A.** IC50 [1]: 2200 nM; IC50 [3]: 11000 nM

**Q.** How did the IC50 (hACC1) turn out when `CC(=O)N[C@@H](C)c1cc(-c2cnc(Oc3ccc(OCC4CC4)cc3)s2)no1` [Example 21, (S)—N-(1-(3-(2-(4-(cyclopropylmethoxy)phenoxy)thiazol-5-yl)isoxazol-5-yl)ethyl)acetamide] was run?
**A.** 98 nM

**Q.** And the IC50 [1]?
**A.** 7 nM

**Q.** What about the IC50 (hACC2) of the same molecule?
**A.** 2 nM

**Q.** And the IC50 [3]?
**A.** 44 nM

**Q.** What does the source list for `CC(=O)NC(C)c1ccc(-c2cnc(Oc3ccc(OCC4CC4)cc3)s2)cc1` (stereo not drawn) [Example 22, N-(1-(4-(2-(4-(cyclopropylmethoxy)phenoxy)thiazol-5-yl)phenyl)ethyl)acetamide]?
**A.** IC50 [1]: 957 nM; IC50 [3]: 4050 nM

**Q.** Which IC50 (hACC1) does the source give for `CC(=O)N[C@@H](C)CCc1ccc(Oc2ccc(OC(C)C)cc2)cc1` [Example 23, (S)—N-(4-(4-(4-isopropoxyphenoxy)phenyl)butan-2-yl)acetamide] here?
**A.** 687 nM

**Q.** What about the IC50 [1] of the same molecule?
**A.** 109 nM

**Q.** What about the IC50 (hACC2) of the same molecule?
**A.** 16 nM

**Q.** And the IC50 [3]?
**A.** 680 nM

**Q.** For `O=C(O)CCc1ccc(-c2ccc(S(=O)(=O)N[C@H]3CC[C@H](C(=O)N4CCOC[C@@H]4c4ccccc4)CC3)cc2)cc1` [Example 24, 3-(4′-(N-((1S,4r)-4-((S)-3-phenylmorpholine-4-carbonyl)cyclohexyl)sulfamoyl)-[1,1′-biphenyl]-4-yl)propanoic acid], which IC50 [1] is on record?
**A.** 28 nM

**Q.** And the IC50 [3]?
**A.** 41 nM
